Key:
[1] = test system: Pythium ultimum; experiment: Pythium ultimum / liquid culture (seedling damping off); type: cell-based; conditions: Globisporangium ultimum, liquid culture in PDB, 24° C., 2-3 days after application, read-out: inhibit fungal infestation (inhibition of growth determined photometrically)
Protocol: Mycelia fragments or conidia suspensions of a fungus, prepared either freshly from liquid cultures of the fungus or from cryogenic storage, are directly mixed into nutrient broth. DMSO solutions of the test compound (max. 10 mg/ml) is diluted with 0.025% Tween20 by factor 50 and 10 μl of this solution is pipetted into a microtiter plate (96-well format) and the nutrient broth containing the fungal spores/mycelia fragments is then added to give an end concentration of the tested compound. The test plates are incubated at 24° C. and 96% rH in the dark. The inhibition of fungal growth is determined photometrically after 2-6 days and antifungal activity is calculated.
Mycelia fragments and oospores of a newly grown liquid culture of the fungus are directly mixed into nutrient broth (PDB potato dextrose broth). After placing a (DMSO) solution of test compound into a microtiter plate (96-well format), the nutrient broth containing the fungal mycelia/spore mixture is added. The test plates are incubated at 24° C. and the inhibition of growth is determined photometrically 2-3 days after application.

[2] = test system: Plasmopara viticola; experiment: Plasmopara viticola / grape / leaf disc preventative; type: in vivo; conditions: foliar, grape vine leaf disks, inoculated 1 day after application, assessed 6-8 days after application, read-out: inhibit fungal infestation (percent disease control compared to untreated)
Protocol: (§1) Leaf disks of various plant species (diameter 14 mm) are cut from plants grown in the greenhouse. The cut leaf disks are placed in multiwell plates (24-well format) onto water agar. Immediately after cutting the leaf disks are sprayed with a test solution.
(§2) Compounds to be tested are prepared as DMSO solutions (max. 10 mg/ml). Just before spraying the solutions are diluted to the appropriate concentrations with 0.025% Tween20. After drying, the leaf disks are inoculated with a spore suspension of the appropriate pathogenic fungus.
(§3) After an incubation time of 3-7 days after inoculation at defined conditions (temp, rH, light, etc.) according to the respective test system, the activity of the test compound is assessed as antifungal activity.
Grape vine leaf disks are placed on water agar in multiwell plates (24-well format) and sprayed with the formulated test compound diluted in water. The leaf disks are inoculated with a spore suspension of the fungus 1 day after application. The inoculated leaf disks are incubated at 19° C. and 80% rh under a light regime of 12 h light/12 h darkness in a climate cabinet and the activity of a compound is assessed as percent disease control compared to untreated when an appropriate level of disease damage appears in untreated check leaf disks (6-8 days after application).

[3] = test system: Blumeria graminis f. sp. tritici (Erysiphe graminis f. sp. tritici); experiment: Blumeria graminis f. sp. tritici / wheat / leaf disc preventative (powdery mildew on wheat); type: in vivo; conditions: foliar, wheat leaf segments cv. Kanzler, inoculated 1 day after application, assessed 6-8 days after application, read-out: inhibit fungal infestation (percent disease control compared to untreated)
Protocol: as §1, §2, §3
Wheat leaf segments cv. Kanzler are placed on agar in a multiwell plate (24-well format) and sprayed with the formulated test compound diluted in water. The leaf disks are inoculated by shaking powdery mildew infected plants above the test plates 1 day after application. The inoculated leaf disks are incubated at 20° C. and 60% rh under a light regime of 24 h darkness followed by 12 h light/12 h darkness in a climate chamber and the activity of a compound is assessed as percent disease control compared to untreated when an appropriate level of disease damage appears on untreated check leaf segments (6-8 days after application).

[4] = test system: Phytophthora infestans; experiment: whole plant or invertebrate; type: in vivo; conditions: in Solanum lycopersicum, foliar, read-out: inhibit fungal infestation (percent disease control compared to untreated)
[5] = test system: Phaeosphaeria nodorum (Septoria nodorum); experiment: Phaeosphaeria nodorum (Septoria nodorum) / wheat / leaf disc preventative (glume blotch); type: in vivo; conditions: Parastagonospora nodorum, foliar, wheat leaf segments cv. Kanzler, inoculated 2 days after application, assessed 5-7 days after application, read-out: inhibit fungal infestation (percent disease control compared to untreated)
Protocol: as §1, §2, §3
Wheat leaf segments cv. Kanzler are placed on agar in a multiwell plate (24-well format) and sprayed with the formulated test compound diluted in water. The leaf disks are inoculated with a spore suspension of the fungus 2 days after application. The inoculated test leaf disks are incubated at 20° C. and 75% rh under a light regime of 12 h light/12 h darkness in a climate cabinet and the activity of a compound is assessed as percent disease control compared to untreated when an appropriate level of disease damage appears in untreated check leaf disks (5-7 days after application).

**Q.** Which results are given for `C#CC(C)(C)NC(=O)C(Oc1ccc2ncc(C)cc2c1)SC` (stereo not shown) [Compound 2, N-(1,1-Dimethyl-prop-2-ynyl)-2-(3-methyl-quinolin-6-yloxy)-2-methylsulfanyl-acetamide]?
**A.** inhibition at 200 ppm [1]: ≥ 80%; melting point: 132 to 134 °C; inhibition at 200 ppm [2]: ≥ 80%; inhibition at 200 ppm [3]: ≥ 80%; inhibition at 200 ppm [4]: ≥ 80%

**Q.** With `CC#CC(C)(C)NC(=O)C(Oc1ccc2ncc(C)cc2c1)SC` (stereo not shown) [Compound 3, N-(1,1-Dimethyl-but-2-ynyl)-2-(3-methyl-quinolin-6-yloxy)-2-methylsulfanyl-acetamide] as the compound, how does the inhibition at 200 ppm [1] read?
**A.** ≥ 80%

**Q.** And the melting point?
**A.** 128 to 129 °C

**Q.** What about the inhibition at 200 ppm [2] of the same compound?
**A.** ≥ 80%

**Q.** And the inhibition at 200 ppm [3]?
**A.** ≥ 80%

**Q.** What about the inhibition at 200 ppm [4] of the same compound?
**A.** ≥ 80%

**Q.** Which inhibition at 200 ppm [1] does the source give for `CSC(Oc1cc(C)c2ncc(C)cc2c1)C(=O)NC(C)(C)C` (stereo not shown) [Compound 6, N-tert-Butyl-2-(3,8-dimethyl-quinolin-6-yloxy)-2-methylsulfanyl-acetamide] here?
**A.** ≥ 80%

**Q.** What about the melting point of the same compound?
**A.** 126 to 127 °C

**Q.** And the inhibition at 200 ppm [2]?
**A.** ≥ 80%

**Q.** What about the inhibition at 200 ppm [3] of the same compound?
**A.** ≥ 80%

**Q.** What about the inhibition at 200 ppm [4] of the same compound?
**A.** ≥ 80%

**Q.** What does the source list for `COCC#CC(C)(C)NC(=O)C(Oc1cc(C)c2ncc(C)cc2c1)SC` (stereo not shown) [Compound 7, 2-(3,8-Dimethyl-quinolin-6-yloxy)-N-(4-methoxy-1,1-dimethyl-but-2-ynyl)-2-methylsulfanyl-acetamide]?
**A.** inhibition at 200 ppm [1]: ≥ 80%; melting point: 124 to 126 °C; inhibition at 200 ppm [2]: ≥ 80%; inhibition at 200 ppm [3]: ≥ 80%; inhibition at 200 ppm [4]: ≥ 80%

**Q.** Which inhibition at 200 ppm [1] does the source give for `CO/N=C/C(C)(C)NC(=O)C(Oc1cc(C)c2ncc(C)cc2c1)SC` (stereo not shown) [Compound 8, 2-(3,8-Dimethyl-quinolin-6-yloxy)-N-(2-methoxyimino-1,1-dimethyl-ethyl)-2-methylsulfanyl-acetamide] here?
**A.** ≥ 80%

**Q.** What about the melting point of the same compound?
**A.** 109 to 111 °C

**Q.** What about the inhibition at 200 ppm [2] of the same compound?
**A.** ≥ 80%

**Q.** What about the inhibition at 200 ppm [3] of the same compound?
**A.** ≥ 80%

**Q.** And the inhibition at 200 ppm [5]?
**A.** ≥ 80%

**Q.** What about the inhibition at 200 ppm [4] of the same compound?
**A.** ≥ 80%

**Q.** Which results are given for `CSC(Oc1cc(C)c2ncc(C)cc2c1)C(=O)NC1(C)CCC1` (stereo not shown) [Compound 9, 2-(3,8-Dimethyl-quinolin-6-yloxy)-N-(1-methyl-cyclobutyl)-2-methylsulfanyl-acetamide]?
**A.** inhibition at 200 ppm [1]: ≥ 80%; melting point: 150 to 151 °C; inhibition at 200 ppm [2]: ≥ 80%; inhibition at 200 ppm [3]: ≥ 80%; inhibition at 200 ppm [4]: ≥ 80%

**Q.** What does the source list for `C#CC(C)(COC)NC(=O)C(Oc1cc(C)c2ncc(C)cc2c1)SC` (stereo not shown) [Compound 10, 2-(3,8-Dimethyl-quinolin-6-yloxy)-N-(1-methoxymethyl-1-methyl-prop-2-ynyl)-2-methylsulfanyl-acetamide]?
**A.** inhibition at 200 ppm [1]: ≥ 80%; melting point: 119 to 120 °C; inhibition at 200 ppm [3]: ≥ 80%; inhibition at 200 ppm [5]: ≥ 80%; inhibition at 200 ppm [4]: ≥ 80%

**Q.** With `CO/N=C/C(C)(C)NC(=O)C(Oc1ccc2ncc(C)cc2c1)SC` (stereo not shown) [Compound 12, N-(2-Methoxyimino-1,1-dimethyl-ethyl)-2-(3-methyl-quinolin-6-yloxy)-2-methylsulfanyl-acetamide] as the compound, how does the inhibition at 200 ppm [1] read?
**A.** ≥ 80%

**Q.** What about the melting point of the same compound?
**A.** 130 to 132 °C

**Q.** What about the inhibition at 200 ppm [2] of the same compound?
**A.** ≥ 80%

**Q.** And the inhibition at 200 ppm [3]?
**A.** ≥ 80%

**Q.** And the inhibition at 200 ppm [4]?
**A.** ≥ 80%

**Q.** For `CC#CC(C)(C)NC(=O)C(Oc1ccc2ncc(CC)cc2c1)SC` (stereo not shown) [Compound 13, N-(1,1-Dimethyl-but-2-ynyl)-2-(3-ethyl-quinolin-6-yloxy)-2-methylsulfanyl-acetamide], which inhibition at 200 ppm [1] is on record?
**A.** ≥ 80%

**Q.** What about the melting point of the same compound?
**A.** 133 to 134 °C

**Q.** And the inhibition at 200 ppm [2]?
**A.** ≥ 80%

**Q.** And the inhibition at 200 ppm [3]?
**A.** ≥ 80%

**Q.** What about the inhibition at 200 ppm [4] of the same compound?
**A.** ≥ 80%

**Q.** Which inhibition at 200 ppm [1] does the source give for `CC#CC(C)(C)NC(=O)C(Oc1cc(F)c2ncc(CC)cc2c1)SC` (stereo not shown) [Compound 15, N-(1,1-Dimethyl-but-2-ynyl)-2-(3-ethyl-8-fluoro-quinolin-6-yloxy)-2-methylsulfanyl-acetamide] here?
**A.** ≥ 80%

**Q.** And the melting point?
**A.** 151 to 153 °C

**Q.** What about the inhibition at 200 ppm [2] of the same compound?
**A.** ≥ 80%

**Q.** And the inhibition at 200 ppm [3]?
**A.** ≥ 80%

**Q.** What about the inhibition at 200 ppm [4] of the same compound?
**A.** ≥ 80%

**Q.** Which results are given for `CCc1cnc2c(C)cc(OC(SC)C(=O)NC(C)(C)C)cc2c1` (stereo not shown) [Compound 17, N-tert-Butyl-2-(3-ethyl-8-methyl-quinolin-6-yloxy)-2-methylsulfanyl-acetamide]?
**A.** inhibition at 200 ppm [1]: ≥ 80%; melting point: 153 to 154 °C; inhibition at 200 ppm [2]: ≥ 80%; inhibition at 200 ppm [4]: ≥ 80%

**Q.** With `CC#CC(C)(C)NC(=O)C(Oc1cc(C)c2ncc(CC)cc2c1)SC` (stereo not shown) [Compound 19, N-(1,1-Dimethyl-but-2-ynyl)-2-(3-ethyl-8-methyl-quinolin-6-yloxy)-2-methylsulfanyl-acetamide] as the compound, how does the inhibition at 200 ppm [1] read?
**A.** ≥ 80%

**Q.** What about the melting point of the same compound?
**A.** 166 to 167 °C

**Q.** And the inhibition at 200 ppm [2]?
**A.** ≥ 80%

**Q.** What about the inhibition at 200 ppm [4] of the same compound?
**A.** ≥ 80%

**Q.** Which inhibition at 200 ppm [1] does the source give for `CCc1cnc2c(C)cc(OC(SC)C(=O)NC(C)(C)C#CCOC)cc2c1` (stereo not shown) [Compound 20, 2-(3-Ethyl-8-methyl-quinolin-6-yloxy)-N-(4-methoxy-1,1-dimethyl-but-2-ynyl)-2-methylsulfanyl-acetamide] here?
**A.** ≥ 80%

**Q.** And the melting point?
**A.** 137 to 138 °C

**Q.** What about the inhibition at 200 ppm [2] of the same compound?
**A.** ≥ 80%

**Q.** What about the inhibition at 200 ppm [4] of the same compound?
**A.** ≥ 80%

**Q.** Which results are given for `CCc1cnc2c(C)cc(OC(SC)C(=O)NC3CCC3)cc2c1` (stereo not shown) [Compound 21, N-Cyclobutyl-2-(3-ethyl-8-methyl-quinolin-6-yloxy)-2-methylsulfanyl-acetamide]?
**A.** inhibition at 200 ppm [1]: ≥ 80%; melting point: 157 to 158 °C; inhibition at 200 ppm [2]: ≥ 80%; inhibition at 200 ppm [4]: ≥ 80%

**Q.** What does the source list for `CCc1cnc2c(C)cc(OC(SC)C(=O)NC3(C)CCC3)cc2c1` (stereo not shown) [Compound 22, 2-(3-Ethyl-8-methyl-quinolin-6-yloxy)-N-(1-methyl-cyclobutyl)-2-methylsulfanyl-acetamide]?
**A.** inhibition at 200 ppm [1]: ≥ 80%; melting point: 150 to 151 °C; inhibition at 200 ppm [2]: ≥ 80%; inhibition at 200 ppm [4]: ≥ 80%

**Q.** Which inhibition at 200 ppm [1] does the source give for `CCc1cnc2c(Cl)cc(OC(SC)C(=O)NC(C)(C)/C=N/OC)cc2c1` (stereo not shown) [Compound 24, 2-(8-Chloro-3-ethyl-quinolin-6-yloxy)-N-(2-methoxyimino-1,1-dimethyl-ethyl)-2-methylsulfanyl-acetamide] here?
**A.** ≥ 80%

**Q.** What about the melting point of the same compound?
**A.** 142 to 144 °C

**Q.** And the inhibition at 200 ppm [2]?
**A.** ≥ 80%

**Q.** And the inhibition at 200 ppm [3]?
**A.** ≥ 80%

**Q.** What about the inhibition at 200 ppm [4] of the same compound?
**A.** ≥ 80%

**Q.** For `C#CC(C)(C)NC(=O)C(Oc1cc(Cl)c2ncc(CC)cc2c1)SC` (stereo not shown) [Compound 25, 2-(8-Chloro-3-ethyl-quinolin-6-yloxy)-N-(1,1-dimethyl-prop-2-ynyl)-2-methylsulfanyl-acetamide], which melting point is on record?
**A.** 149 to 151 °C

**Q.** And the inhibition at 200 ppm [2]?
**A.** ≥ 80%

**Q.** And the inhibition at 200 ppm [5]?
**A.** ≥ 80%

**Q.** And the inhibition at 200 ppm [4]?
**A.** ≥ 80%

**Q.** Which melting point does the source give for `CCc1cnc2c(Cl)cc(OC(SC)C(=O)NC(C)(C)C#CCOC)cc2c1` (stereo not shown) [Compound 27, 2-(8-Chloro-3-ethyl-quinolin-6-yloxy)-N-(4-methoxy-1,1-dimethyl-but-2-ynyl)-2-methylsulfanyl-acetamide] here?
**A.** 139 to 142 °C

**Q.** What about the inhibition at 200 ppm [2] of the same compound?
**A.** ≥ 80%

**Q.** And the inhibition at 200 ppm [3]?
**A.** ≥ 80%

**Q.** And the inhibition at 200 ppm [4]?
**A.** ≥ 80%

**Q.** Which inhibition at 200 ppm [1] does the source give for `CCc1cnc2c(Cl)cc(OC(SC)C(=O)NC3(C)CCC3)cc2c1` (stereo not shown) [Compound 28, 2-(8-Chloro-3-ethyl-quinolin-6-yloxy)-N-(1-methyl-cyclobutyl)-2-methylsulfanyl-acetamide] here?
**A.** ≥ 80%

**Q.** And the melting point?
**A.** 148 to 150 °C

**Q.** And the inhibition at 200 ppm [2]?
**A.** ≥ 80%

**Q.** What about the inhibition at 200 ppm [3] of the same compound?
**A.** ≥ 80%
